From PMC3396595, “Identification of a Novel Calcium Binding Motif Based on the Detection of Sequence Insertions in the Animal Peroxidase Domain of Bacterial Proteins” (PLoS ONE, 2012)

Molecular target: PepA-Nter (N-terminal ANP-like domain of PepA, PP_2561) (Pseudomonas putida, UniProt Q88JT6)
Assay: peroxidase assay, quinoneimine formation at […] nm
Assay type: biochemical
Conditions: heme-reconstituted; electron donor with phenol; H2O2 0.25-45 mM varied; potassium phosphate pH 7.0, 25 °C

PepA-Nter (N-terminal ANP-like domain of PepA, PP_2561), sequence (Q88JT6 1-875 limits assumed): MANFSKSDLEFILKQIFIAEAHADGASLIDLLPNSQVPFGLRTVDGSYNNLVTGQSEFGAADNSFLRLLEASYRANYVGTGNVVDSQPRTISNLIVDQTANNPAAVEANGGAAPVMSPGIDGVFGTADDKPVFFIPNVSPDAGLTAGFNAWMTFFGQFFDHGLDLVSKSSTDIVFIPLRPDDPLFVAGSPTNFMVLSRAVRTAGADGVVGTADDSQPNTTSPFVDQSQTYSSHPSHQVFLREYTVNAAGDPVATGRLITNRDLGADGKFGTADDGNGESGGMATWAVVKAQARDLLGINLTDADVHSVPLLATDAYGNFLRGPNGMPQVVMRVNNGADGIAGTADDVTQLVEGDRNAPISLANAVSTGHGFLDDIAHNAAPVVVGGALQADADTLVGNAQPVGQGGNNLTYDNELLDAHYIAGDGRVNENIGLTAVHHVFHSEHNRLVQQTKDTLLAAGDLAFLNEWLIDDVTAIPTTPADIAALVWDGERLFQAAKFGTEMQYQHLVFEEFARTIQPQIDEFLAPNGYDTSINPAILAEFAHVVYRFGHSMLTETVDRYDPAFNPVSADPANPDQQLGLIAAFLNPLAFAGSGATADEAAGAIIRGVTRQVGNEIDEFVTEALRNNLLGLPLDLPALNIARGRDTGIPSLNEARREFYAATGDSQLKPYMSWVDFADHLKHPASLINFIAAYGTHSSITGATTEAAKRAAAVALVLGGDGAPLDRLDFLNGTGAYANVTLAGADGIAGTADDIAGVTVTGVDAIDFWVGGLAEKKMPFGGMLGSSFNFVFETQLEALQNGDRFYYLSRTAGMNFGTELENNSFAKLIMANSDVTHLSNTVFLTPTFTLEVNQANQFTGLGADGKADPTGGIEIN

In the case of `Cc1c(N)c(=O)n(-c2ccccc2)n1C` [4-aminoantipyrine], the “peroxidase assay, quinoneimine formation at 510 nm” value was “oxidation of 4-aminoantipyrine (same electron donor than the one used in this study)”.
